For data set [1], the system named is HD-MB03 PDOX. The data set is described as follows: Orthotopic PDOX model, IVIS bioluminescence and survival. It counts as in vivo, mice. The conditions noted are these: HD-MB03, regimens R1 and R2 vs vehicle. The method, then:
(§1) The treatment-naïve, patient-derived cell line, HD-MB03, was orthotopically engrafted into immunocompromised mice. Four days later, tumors were readily detectible via bioluminescence imaging. Thereafter mice were randomized into three cohorts, which were treated with either the vehicle or one of two BAY treatment regimens (R1 and R2; FIG. 5B).
(§2) PDOX were generated by engrafting 25,000 tumor cells (both SU_MB002 and HD-MB03 cell lines), suspended in 5 μL PBS, directly into the mouse cerebrum. Flank xenografts were generated by engrafting 2,000,000 tumor cells suspended in a 100 μL solution of PBS/Matrigel® (1:1 v/v). For preclinical studies, cells were engineered to express enhanced firefly luciferase. […] Flank tumors were isolated at matched time points and formalin fixed for 48 hours, paraffin embedded (FFPE) and sectioned for follow-up analysis. Tumor area was manually measured in H&E-stained sections of FFPE tissues using ImageJ.
(§3) For imaging via the in vivo imaging system (IVIS), mice were sedated with isoflurane gas and then administered luciferin substrate (150 mg/kg in PBS) via subcutaneous injection. After 10 minutes, bioluminescent signal (photons per second; p/s) was quantified using Living Image software.

Data set [2] can be described thus: Pharmacokinetic analysis of BAY2402234 in plasma and brain by LC-MS. It counts as in vivo. The conditions noted are these: healthy mice undergoing treatment. As for the experimental part:
(§4) In parallel to these experiments, subcutaneous flank xenografts were engrafted into two cohorts of mice, which were treated with the vehicle or R2. […] To investigate the pharmacokinetics of BAY in vivo, its concentration in plasma and brain tissues of healthy mice was directly quantified using an LC-MS approach. BAY was detected in both brains and plasma of mice undergoing treatment, however the plasma concentrations exceeded those of the brain by approximately 10-fold (FIG. 5H-I). To determine whether treatment with BAY affects de novo pyrimidine biosynthesis in vivo, changes in pyrimidine metabolism were measured in the brain in comparison to tumor tissues from the flank (FIG. 5J-K). Although BAY treatment impacted de novo pyrimidine metabolism in vivo in both brain and tumor tissues, with a similar pattern observed in vitro (FIG. 4A), the effect size was stronger in peripheral tumor tissue in comparison to brain tissue. Such findings further reflect the limited capacity for BAY to accumulate within the brain.
Standards and samples were extracted by the addition of organic solvent, containing the internal standard (IS), for protein precipitation. […] Brains were analyzed similarly, with 20 μL of sample transferred to 180 μL of IS solution prior to analysis via LC-MS.

Data set [3] has as its system SU_MB002 PDOX. In words: Orthotopic PDOX model, tumor burden and survival. It counts as in vivo, mice. The conditions noted are these: orthotopic SU_MB002, BAY R1. The method, then: as §1, §2, §3
Data set [4] concerns de novo pyrimidine biosynthesis in brain tissue. The data set is described as follows: LC-MS metabolome profiling of brain tissues of treated mice. It counts as in vivo. Particulars: individual samples, listed as BAY. The method, then: as §4
For metabolome profiling of tissues, ˜5 mg tissue were homogenized in 225 μL of −20° C. cold, methanol using a Bullet Blender Tissue Homogenizer (NextAdvance, Inc.) Bullet for 3 min. The homogenate was vortexed for 20 s and 750 μL of −20° C. cold methyl tertiary-butyl ether (MTBE) was added, and the mixture was vortexed for 10 s and shaken at 4° C. for 5 min. Next, 188 μL room temperature water was added and vortexed for 20 s to induce phase separation. After centrifugation for 5 min at 14,000×g, the bottom polar phase was collected and dried down. Metabolite extracts were reconstituted in LC-MS grade water/acetonitrile (50:50; v:v), vortexed for 1 min, sonicated for 15 min, and centrifuged at 16,000×g and 4° C. for 15 min to remove insoluble debris.
The LC-MS metabolomics and lipidomics analyses of the 3 NSC and 3 MB cell lines and tissues were performed on a UPLC-MS system consisting of an Orbitrap IQ-X Tribrid coupled to a Horizon Vanquish UPLC system (Thermo Fisher Scientific). The lipidomics analysis was conducted in positive-ion mode with a spray voltage of 3.5 kV while the metabolomics analysis was conducted in negative-ion mode with a spray voltage of −2.5 kV. The following source conditions were identical in both analyses and were set as follows: Sheath gas flow rate, 50 arbitrary units; Aux. gas flow rate, 10 arbitrary units; Sweep gas flow rate, 1 arbitrary unit; Ion transfer tube temp., 300° C.; Vaporizer temp., 350° C. The following acquisition parameters were used for MS1 analysis in both methods: resolution, 120,000, AGC target, 4e5. The maximum IT was set at […] for the lipidomics analysis and 200 ms for the metabolomics analysis. Data-dependent MS/MS parameters for the lipidomics analyses: resolution, 30,000; AGC target, 7.5e4; maximum IT, Dynamic (54 ms); time between Master Scans, 0.6 s; isolation window, 1.0 m/z; NCE/stepped nce, 20, 30, 40; intensity threshold, 5e4; exclude isotopes, on; dynamic exclusion, 3.0 s. Data-dependent MS/MS parameters for the metabolomics analyses: resolution. 15,000; AGC target, 7.5e4; maximum IT, Dynamic (22 ms); time between Master Scans, 0.6 s; isolation window, 1.0 m/z; NCE/stepped nce, 20, 30, 40, 50; intensity threshold, 5e4; exclude isotopes, on; dynamic exclusion, 5.0 s. To increase the total number of MS/MS spectra in the lipidomics analysis, five runs with iterative MS/MS exclusions were performed using the AcquireX function in Xcalibur (Thermo Fisher Scientific). In the metabolomics analysis, three runs with iterative MS/MS exclusions were performed using the AcquireX function. For the lipidomics analysis, chromatographic separation was achieved using a Waters Acquity UPLC CSH C18 (100 mm×2.1 mm i.d.; 1.7 μm) column injecting 2 μL. […] The column was equilibrated for 2 min at 15% B. The flow rate was set to 250 μL/min. The column temperature was maintained at 65° C. […]

Where [5] appears, read: brain tissue of BAY-treated mice.

Several values for one entry are separate records, joined by “and”; a condition that tells them apart may be missing. Identical values can stand only once.

With `CCn1c(CO)nn(-c2cc(O[C@@H](C)C(F)(F)F)c(C(=O)Nc3c(F)cccc3Cl)cc2F)c1=O` [BAY2402234], the overall survival entry in data set [1] was “prolonged overall survival”. In addition, the “PDOX growth (IVIS bioluminescence)” value in data set [1] (oral gavage) is on record as “significantly attenuated”. The “plasma concentration relative to brain concentration” value in data set [2] is “approximately 10 fold”. Moreover, in data set [3], the overall survival entry is reported as “increased overall survival” and the tumor burden result is on record as “reduced tumor burden”. In data set [4] (setting [5]), the “Glutamine normalized peak intensity (Area)” value was 280983232 and 324326048 and 229454432 and 206007952; the “N-Carbamoyl aspartic acid normalized peak intensity (Area)” value was 1700352 and 1616900 and 1920988 and 2261730; the “Orotic acid normalized peak intensity (Area)” value is 3366687 and 6999989 and 4291824 and 3862066; the “UDP-GluNAc normalized peak intensity (Area)” value was 16715786 and 8363980 and 11501715 and 11534621. Also, in data set [4] (setting [5]), the “UTP normalized peak intensity (Area)” value was 22962 and 19870 and 12207 and 19991; the “Uridine 5′-diphosphate (UDP) normalized peak intensity (Area)” value is 133672 and 97588 and 69682 and 73337; the “Uridine 5′-monophosphate normalized peak intensity (Area)” value was 23218120 and 13372546 and 15616277 and 19018060; the “Uridine normalized peak intensity (Area)” value is 41449420 and 113184456 and 51214976 and 33664876. Besides, in data set [4] (setting [5]), the “dihydroorotic acid normalized peak intensity (Area)” value was 1975829 and 3553594 and 1415838 and 2677330. In data set [4], the “BAY-2402234 normalized peak intensity (Area)” value was 1338708 and 4796862 and 1717137 and 2579631.

Source of the values: patent US20250152559A1, “METHODS FOR TREATING MYC-AMPLIFIED CANCER” (The Governing Council of the University of Toronto, priority 2023, published 2025).
